Source: patent US20250352608A1, “POLYPEPTIDES HAVING ANTI-INFLAMMATORY EFFECTS AND USES THEREOF” (OneSkin, Inc., priority 2020, published 2025)
“Also recorded” adds a separate entry of the source. Ends that are not written are not given here.

Experiments:
[1] = tested on: human skin equivalents (donors); test: Histology score of human skin equivalents (Example 16); type: cell-based; details: 0.01% w/v (or 1 μM), 5 days; control 21.00
Experimental: To test the effect of Peptide 13 and Peptide 14 treatment on human skin models and the skin morphology, human primary fibroblasts and keratinocytes isolated from healthy elder donors were used to build human skin equivalents. The skin equivalents were treated with 0.01% w/v (or 1 μM) of Peptide 13 or Peptide 14 for 5 days. The negative controls were treated with formulation only. After the 5-day culture, the skin equivalents were analyzed for epidermal thickness, which was quantified according to total epidermal area. Quality assessment based several parameters was performed by blind analysts. […] A minimal score of 19 was required for batch use. This score was validated internally and shown to decrease with age/senescence of the skin equivalents or cultured cells. Three independent experiments were performed with three technical replicates. Data were analyzed using a t-test. Statistical significance was determined as p-values equal or lower than 0.05. The statistically significant p-values are noted by * for p<0.05; ** for p<0.01; *** for p<0.001; **** for p<0.0001 between the groups.

[2] = tested on: fibroblasts; test: SA B-galactosidase staining after UVB (Example 8); type: cell-based, human; details: 48 hours after 2 x 0.05 J/cm^2
Experimental: (§1) In order to shed light into the mechanism of action of Peptide 14 and similar Peptide 13, Akt S473 phosphorylation (FIG. 8, panel A), senescence associated β-galactosidase staining (FIG. 8, panel B), as well as mRNA expression (FIG. 8, panel C) were investigated. For Akt S473 phosphorylation analysis using western blotting, human primary fibroblasts and keratinocytes were used. These cells were used to build human skin equivalents, which were kept in a 5% CO2, 37° C. and 95% humidity atmosphere air liquid interface. Then, skin equivalents were treated with 1p M of either Peptide 14 or Peptide 13 for 5 days, and protein analysis was performed on the skin equivalents. Protein was isolated and quantified. Equal amounts of protein were loaded in polyacrylamide gels and transferred into a nitrocellulose membrane. […] Relative pAkt S473/GAPDH signal was compared between treated and non-treated samples. For senescence associated B-galactosidase staining experiments, fibroblasts were used. […] Total RNA was isolated, samples were reverse transcribed, and mRNA expression of GAPDH, sirtuin 6 (SIRT6), BLM, and exonuclease 1 (EXO1) genes were determined using qPCR. […] CT values were analyzed using the 2^−ΔΔCt method. […] Data was analyzed using a T-test. Statistical significance was determined as p values equal or lower than 0.05 (FIG. 8).

[3] = tested on: 3D skin equivalent (elder donors); test: Relative mRNA expression in 3D skin equivalents versus Retinoic Acid; type: cell-based, human; details: 1p M peptide vs 20 μM Retinoic Acid
Experimental: 3D skin equivalent sections of samples built with cells from elder donors ([…]) were treated with 1p M Peptide 14 or Peptide 13, or 20 μM Retinoic Acid (RA) and assessed for the effect of the various treatments of various markers of senescence, aging, and health.
Data are presented as 2-ddCt normalized to GAPDH and untreated control. *p<0.05. Peptide 13 and Peptide 14-treated samples generally had similar relative mRNA expression levels for p16, BLIMP1, ZYG11B, IL-8, and Ki-67 in the epidermal layer, and for p16, MMP1, HAS2, IL-8, and Ki-67 in the dermal layer. Peptide 13 and Peptide 14-treated samples generally had lower relative mRNA expression levels than RA-treated samples for p16, BLIMP1, ZYG11B, IL-8, in the epidermal layer and for p16, MMP1, IL-8, and Ki-67 in the dermal layer. Peptide 13 and Peptide 14-treated samples generally had higher relative mRNA expression levels than RA-treated samples for Ki-67 in the epidermal layer and for HAS2 for the dermal layer. Peptide 13 and Peptide 14-treated samples had similar relative mRNA expression levels as RA-treated samples for ZIC1 and Ki-67 for dermal layer.

[4] = tested on: pAkt S473; test: Akt S473 phosphorylation western blot in skin equivalents; type: cell-based, human; details: 1p M, 5 days
Experimental: as §1

[5] = tested on: peripheral blood mononuclear cells (PBMCs); test: PBMC viability / toxicity (MTT); type: cell-based, human; details: 1.56 μM to 150 μM
Experimental: T cells may be involved in inflammation of various skin disorders. […] This study was approved by an IRB board. PBMCs were obtained from healthy volunteers. After isolation, the PBMCs were maintained in 96 wells and treated with different concentrations of Peptide 14 (1.56 μM to 150 μM) in order to assess toxicity of Peptide 14 to the PBMCs.
The viability and proliferation of PBMCs were analyzed by MTT assay. Briefly, after 5 days of treatment, the cells were incubated with […] MTT reagent for 4 hours. Then, 100 μL of DMSO was added into each well, and the absorbance was detected at 595 nm. Data was presented as percentage of proliferation/viability normalized to the negative control of untreated PBMCs (100% viability/proliferation).

[6] = tested on: Caenorhabditis elegans; test: C. elegans healthspan and lifespan; type: in vivo; details: at the concentrations tested (1 μM, 2 μM)
Experimental: Senotherapeutic strategies can be linked to healthspan and lifespan extension in vivo. In order to assess whether Peptide 14 promotes extended healthspan and lifespan, Caenorhabditis elegans worms were used. Peptide 14 was added in the worm media (M9 buffer media) at different concentrations of 1 μM or 2 μM. Negative control worms received vehicle only. Two healthspan parameters were assessed i) pharyngeal pumping and ii) worm movement. Lifespan was also determined. For pharyngeal pumping analysis, 15 worms had their pharynx movement (pumping) observed daily and counted for 20 seconds. This experiment was repeated 3 times, by 2 different blind observers, employing different populations of animals at different days. Statistical difference was detected by analyzing each individual time point by One-Way ANOVA and Dunnet's post hoc test. All groups were compared with the H2O group. For worm movement analysis, the basic movement of C. elegans, also called thrashing, was measured daily for 15 worms. […] Statistical difference was detected by analyzing each individual time point by One-Way ANOVA and Dunnet's post hoc, and all groups were compared with the H2O group. […] The average lifespan was measured. Statistical difference was detected by analyzing each individual time point by One-Way ANOVA and Dunnet's post hoc, and all groups were compared with the H2O group (FIG. 15).

[7] = tested on: human primary fibroblasts isolated from 3 healthy donors; test: UVB-induced senescence; type: cell-based; details: 5 μM, 48 hours
Experimental: Cellular senescence may be caused by several different stimuli. In order to assess whether Peptide 14 was effective against UVB-induced and chemically-induced senescence, human primary fibroblasts isolated from 3 healthy donors were used. These cells were cultured in DMEM (Dulbecco's Modified Eagle's Medium) supplemented with 10% v.v. fetal bovine serum (FBS), and 1% v.v. of penicillin/streptomycin solution (1,000 U mL-1). Cells were kept in a 5% CO2, 37° C. and 95% humidity atmosphere. After expansion, these cells were seeded in 96-well plates (4,000 cells per well) and, 6 hours after plating, were submitted to either etoposide (20 μM) treatment for 24 hours, or exposed twice to 0.05 J/cm^2 of UVB radiation. […] After incubation, relative cellular senescence (assessed by the activity of senescence associated β-galactosidase staining relative to untreated control) was analyzed and plotted in column graphs. ATRX foci were also assessed following ATRX immunofluorescence staining. Graphs were built using the average ATRX foci detected per nuclei. […] Data was analyzed using with either t-test or ANOVA followed by a Bonferroni post-hoc test. Statistical significance was determined as p-values equal or lower than 0.05 (FIG. 6).

[8] = tested on: Human primary fibroblasts isolated from 3 healthy chronologically aged (elder) donors; test: 3-week exposure: senescence and proliferation; type: cell-based; details: 3.12 μM, days 7-28
Experimental: Human primary fibroblasts isolated from 3 healthy chronologically aged (elder) donors were used. These cells were cultured in DMEM (Dulbecco's Modified Eagle's Medium) supplemented with 10% v.v. fetal bovine serum (FBS), and 1% v.v. of penicillin/streptomycin solution (1,000 U·mL-1). Cells were kept in a 5% CO2, 37° C. and 95% humidity atmosphere. After expansion, these cells were seeded in T-75 flasks (250,000 cells per flask) and, 6 hours after plating, were incubated for 3 weeks (21 days) with Peptide 14 at 3.12 μM. A negative control comprised untreated cells, which received vehicle only. Day 0 was defined as the day cells started to be treated with Peptide 14. No Peptide 14 treatment was performed between days 21 and 28. Weekly, cellular senescence was assessed according to senescence associated β-galactosidase staining levels. Data was normalized to untreated group and plotted (FIG. 4, panel A). Cellular proliferation was also determined weekly. At days 7, 14, 21, and 28, cells were trypsinized and counted (FIG. 4, panel B). After counting, 250,000 cells were plated in new T-75 flasks. Three independent experiments (biological replicates) including three technical replicates were performed. Data was analyzed using T-test. Statistical significance was determined as p values equal or lower than 0.05.

[9] = tested on: U-937 macrophages; details: 3.12 μM, absence or presence of 0.5 μg/mL LPS
Text: In some cases, monocytes and macrophages may be involved in inflammation of various skin disorders. In order to assess the effect of Peptide 14 on inflammation, an in vitro model of inflammation using monocytes and macrophages was used to study the effect of direct culture of the Peptide 14 with such cells. Cells from the U-937 cell line (Banco de Células do Rio de Janeiro—BCRJ cat. 0242) were used for experiments. According to BCRJ, the U-937 cell line was derived by Sundstrom and Nilsson in 1974 from malignant cells obtained from the pleural effusion of a patient with histiocytic lymphoma. Also, studies since 1979 have shown that U-937 cells can be induced to terminal monocytic differentiation by supernatants from human mixed lymphocyte cultures or phorbol myristic acid (PMA) stimulation.

## ATAKAWLKGI [Peptide 13]
[1]
  mean of histology scores (maximum 28): 23.44
[2]
  SA B-galactosidase staining in UVB-exposed samples: decreased staining
[3]
  relative mRNA BLIMP1, epidermal layer, vs RA-treated samples: lower
  relative mRNA HAS2, dermal layer, vs RA-treated samples: higher
  relative mRNA IL-8, dermal layer, vs RA-treated samples: lower
  relative mRNA IL-8, epidermal layer, vs RA-treated samples: lower
  relative mRNA Ki-67, dermal layer, vs RA-treated samples: lower; also recorded: similar
  relative mRNA Ki-67, epidermal layer, vs RA-treated samples: higher
  relative mRNA MMP1, dermal layer, vs RA-treated samples: lower
  relative mRNA ZIC1 vs RA-treated samples: similar
  relative mRNA ZYG11B, epidermal layer, vs RA-treated samples: lower
  relative mRNA p16, dermal layer, vs RA-treated samples: lower
  relative mRNA p16, epidermal layer, vs RA-treated samples: lower
[4]
  pAkt S473, dermal samples: decreased

## ETAKHWLKGI [Peptide 14, ETAKHWLKGI]
[5]
  cell toxicity to PBMCs: nor any detectable cell toxicity
  cell viability vs untreated control PBMCs: did not result in lower cell viabilities
[6]
  toxicity to C. elegans (worm movement): not toxic
[7]
  cell number after UVB: did not significantly alter cell number
[8]
  cell proliferation vs untreated control: No significant differences
[9]
  cell toxicity to U-937 macrophages: nor any detectable cell toxicity
  cell viability vs untreated control U-937 macrophages: did not result in lower cell viabilities
